# Source: paper PMC6017655, “In Silico and in Vitro-Guided Identification of Inhibitors of Alkylquinolone-Dependent Quorum Sensing in Pseudomonas aeruginosa” (Molecules : A Journal of Synthetic Chemistry and Natural …, 2018)
# What was measured:
# [1] = Plasma stability, rat; type: in vitro ADME; settings: 37 °C, up to 2 h, read-out: Plasma Stability Rat t1/2
# Method: (§1) Dilutions of a 10 mM test compound DMSO stock solution were prepared so that the final DMSO concentration was 1% v/v and the final test compound concentration tested was 1 µM. Following the addition of the test compound to plasma, the samples were pre-incubated for 10 min prior to the start of the incubation by the addition of the test compound. The test compound was incubated (n = 2; 1 µM final concentration) at 37 °C with plasma for up to 2 h. Aliquots were sampled at several time points and mixed with acetonitrile (containing internal standard) to terminate the reaction and precipitate the proteins. All the samples were mixed, centrifuged and the supernatants analysed by UPLC-MSMS. Parent disappearance and half-life (t 1/2) values were determined from the slope of the parent depletion curve. Control compounds (imidapril, enalapril, tenofovir and/or propantheline), were respectively included.
# [2] = tested on: PAO1-L; test: Bacterial growth (optical density) in reporter assay, PAO1-L; type: cell-based, Pseudomonas aeruginosa; settings: compound vs DMSO control
# Method: (§2) To determine the ability of the quinolines to inhibit PqsR functionality, the P. aeruginosa biosensor strains, PAO1-L and PA14, incorporating a chromosomal mCTX::PpqsA-lux transcriptional fusion, were used. These report on the activation of the pqsA promoter, regulated by PqsR [25]. PAO1-L and PA14 were chosen because they are genetically amenable and belong to the two major P. aeruginosa genomic groups. The quinolone compounds were incubated with the corresponding strain, and luminescence and optical density readings were recorded to monitor the effect of the quinolines on PqsR activity and bacterial growth, respectively. The compounds were screened at 10 µM concentration, and the activity was compared to a control of DMSO (0.1%) (Figure 3a). To be considered a hit, a threshold of at least 50% inhibition of the test compound, relative to the negative control had to be reached, without affecting bacterial growth. […] Concentration-response experiments were then carried out to determine the IC50 values (Figure 3b,c), which are summarised in Table 1.
# (§3) Figure 3 Whole bacterial cell-based P. aeruginosa compound screen for both PqsR and growth inhibition (a) Activity against PA14 (green) and PAO1-L (purple) PpqsA-lux reporter strains at 10 µM test compound; (b) and (c) Dose-response curves for active compounds against PA14 (b) and PAO1-L (c); (d) and (e) growth curves for PA14 (d) and PAO1-L (e) in the presence of compound or DMSO control.
# [3] = tested on: AQ production in PAO1-L; test: Alkylquinolone (HHQ, PQS, HQNO) production by LC-MS/MS, PAO1-L; type: cell-based, Pseudomonas aeruginosa; settings: 3x IC50, 16 h, culture supernatant
# Method: HQNO, can protect Staphylococcus aureus from vancomycin [31] and contributes to the environmental competitiveness of P. aeruginosa, through its activity as a potent inhibitor of the cytochrome bc1 complex. […] LC-MS/MS was used to quantify the major AQs HHQ, PQS and HQNO after incubation of the P. aeruginosa strains with the hit compounds, for 16 h. The assay was performed using both PAO1-L and PA14 strains which were treated with PqsR antagonists at concentrations three-fold higher than their IC50 values. The results obtained depended on the inhibitor and strain tested (Figure 5).
# For each test sample, 100 µL of sterile filtered supernatant (the same preparation as for pyocyanin) was spiked with 10 µL of an internal standard solution (10 µM d4-PQS in MeOH), and diluted with water, to a total volume of 500 µL. Samples were then extracted three times with an 0.5 mL aliquot of ethyl acetate, vortex mixing the aqueous/organic mix for 2 min, then removing the organic phase once the layers had successfully partitioned. For each sample, the combined organic extracts were dried under vacuum and re-dissolved in 100 µL MeOH prior to analysis. For the LC-MS/MS analysis of supernatant extracts, the chromatography was achieved using a Shimadzu series 10AD VP LC system (Columbia, MD, USA). The LC column, maintained at 40 °C, was a Phenomenex Gemini C18 (3.0 µm, 100 × 3.0 mm) (Macclesfield, Cheshire, UK) with an appropriate guard column. Mobile phase A was 0.1% (v/v) formic acid in water containing 2 mM 2-picolinic acid, and mobile phase B 0.1% (v/v) formic acid in methanol. The flow rate throughout the chromatographic separation was 450 µL/min. After an injection of a 2 µL/sample, a binary gradient, beginning initially at 30% B, increased linearly to 99% B over 5 min. The composition remained at 99% B for 3 min, decreased to 30% B over 1 min, and stayed at this composition for 4 min, to allow for column equilibration. […] Where chromatographic peaks for HHQ, HQNO and PQS were detected, a peak area was determined, and analyte peak area/internal standard peak area calculated.
# [4] = Plasma stability, human; type: in vitro ADME; settings: 37 °C; for half-life at 1 µM: human, plasma, up to 2 h, read-out: Plasma Stability Human t 1/2
# Method: as §1
# [5] = tested on: PA14; test: Bacterial growth (optical density) in reporter assay, PA14; type: cell-based, Pseudomonas aeruginosa; settings: compound vs DMSO control
# Method: as §2, §3
SMILES,half-life at 1 µM [1],"Effect on bacterial growth, PAO1-L [2]","Inhibition of AQ production (in words), PAO1-L [3]","Plasma stability (in words), human plasma ([4]; 1 µM)",half-life at 1 µM [4],"Effect on bacterial growth, PA14 [5]"
O=CN1N=C(c2ccccc2)CC1c1cccc(Nc2ccnc3cc(Cl)ccc23)c1 (centres unmarked) [Ia],> 4 h,without interfering with bacterial growth,strongly-inhibited AQ production,greatest plasma stability,2.2 h,without interfering with bacterial growth
CC(=O)N1N=C(c2ccccc2)CC1c1cccc(Nc2ccnc3cc(Cl)ccc23)c1 (centres unmarked) [IIa],> 4 h,without interfering with bacterial growth,moderate effect,,1.23 h,without interfering with bacterial growth
